Here are results for 2 molecules from US20050203059A1, “Methods and compositions for treatment of ischemia” (priority 2002, published 2005).

The subject of data set [1] is transient middle cerebral artery occlusion (MCAO) in SD rats. The data set can be described thus: Transient (90 min.) middle cerebral artery occlusion (MCAO) in SD rats. Type of data set: in vivo, rat. To be noted: 90 min MCAO, 25 mg/kg intravenous bolus at occlusion, then 50 mg/kg subcutaneous repeatedly, histology at 3 days, FIG. 2. An excerpt:
1. Transient focal cerebral ischemia: A rodent model of transient middle cerebral artery occlusion (MCA) occlusion was used to determine the effect of a representative GSK3 inhibitor compound of the invention, 6-[(2-{[6-(2,4-dichlorophenyl)-5-imidazolyl-2-pyridyl]amino}ethyl)amino]pyridine-3-carbonitrile (CT 99025) in the inhibition of ischemic damage due to stroke. Ischemia was induced using an occluding intraluminal suture model (M. A. Yenari et al., “Time-course and treatment response with SNX-111, an N-type calcium channel blocker, in a rodent model of focal cerebral ischemia using diffusion-weighted MRI,” Brain Res 739:3645 (1996)). Animals were anesthetized with 3% halothane (1-2% maintenance) via face mask. Depth of anesthesia was monitored every 15 minutes by checking toe pinch, and the maintenance halothane levels were adjusted accordingly. […] During the surgical procedure, the following parameters were monitored and maintained in the normal physiological range: mean arterial blood pressure (MABP, measured via a femoral artery catheter), respiratory rate, rectal temperature, heart rate, arterial blood gases, blood glucose, and hematocrit. […]
3. […] Regions without staining were delineated using a computer assisted image analysis program (MCID, St. Catherine's, Ottawa), and expressed as the percent injury of the ipsilateral hemisphere. […]

A short description of data set [2]: Blood brain barrier penetration / plasma drug levels after intravenous dosing in CD rats. Type of data set: in vivo, rat. As to conditions: 10 mg/kg intravenously. On the procedure: GSK3 inhibitor blood brain barrier penetration may generally be measured by administering a GSK3 inhibitor compound formulated in 15% captisol/20 mM sodium citrate to a final dose of 10 mg/kg intravenously through a jugular catheter into 250 g CD rats. At 150 minutes post administration brains from the rats were isolated and fast frozen. GSK3 inhibitor plasma levels in the isolated material were established using standard techniques.

Data set [3] relates to GSK3. Description: Cell-based glycogen synthase assay for GSK3 inhibitory activity (CHO-HIRC cells). As to conditions: read-out: EC50 (glycogen synthase activity stimulated to 50% of the maximal level), 20 minutes incubation. The procedure:
Likewise, the ability of GSK3 inhibitor compounds to potentiate insulin signaling by activating glycogen synthase can be readily ascertained using a cell-based glycogen synthase activity assay. This assay employs cells that respond to insulin stimulation by increasing glycogen synthase activity, such as the CHO-HIRC cell line, which overexpresses wild-type insulin receptor (˜100,000 binding sites/cell). […] The assay can be carried out by incubating serum-starved CHO-HIRC cells in the presence of various concentrations of compounds of the present invention in the medium, followed by cell lysis at the end of the incubation period. […] The concentration of candidate GSK3 inhibitor that increased glycogen synthase activity to half of its maximal level (i.e., the EC50) can be calculated by fitting a four parameter sigmoidal curve using routine curve fitting methods that are well known to those having ordinary skill in the art.
CHO-HIRC cells are maintained in 10 cm tissue culture plates in Ham's F12 medium/10% dialyzed fetal bovine serum. Cells from a confluent 10 cm plate are harvested and divided into the 6 wells of a 6-well tissue culture plate to a final volume of 2 ml of medium. The cells are left to grow at 37° C. for 24 hours. The cells are then washed three times in Ham's F12 medium containing no fetal bovine serum, and finally the cells are left for a further 24 hours at 37° C. in 2 ml of the serum-free medium.
At the end of this time, 20 μl of compound dissolved in DMSO is added to each well and incubated at 37° C. After 20 minutes the medium is removed and the cells are washed once in PBS at room temperature and then rapidly frozen in the plates in liquid nitrogen. […] Cells are scraped from the plates and frozen in Eppendorf tubes on dry ice. Lysates are then thawed and refrozen on dry ice.
After rethawing, lysates are spun at 14,000 g for 15 minutes. The supernatants are then removed and stored on ice. […] Reactions are incubated at 30° C. for 30 minutes and then spotted onto a 2 cm square 31ET chromatograph paper (Whatman).
Filters are added to 5 ml of liquid scintillant and counted in a liquid scintillation counter. The percentage of the total glycogen synthase that is active in any lysate is expressed as 100× (cpm minus glucose-6-phosphate)/(cpm plus glucose-6-phosphate). Such values are determined in duplicate for 5 different concentrations of compound and for DMSO alone, and the values are then plotted against the logarithm of the concentration. The concentration of compound which stimulates glycogen synthase activity to 50% of the maximal level is determined by fitting a sigmoidal curve to the plotted data. The maximal level is defined as that level to which glycogen synthase activity tends asymtotically as the concentration of test compound increases substantially beyond the EC50.

Data set [4] concerns rat hippocampi cells. The data set can be described thus: GSK3 inhibitor protection of rat hippocampi cells from glutamate induced damage (Trypan Blue count). Type of data set: cell-based. Set-up: Cells Surviving (%) Without Glutamate (control): concentration or dose not given beside the values. To be noted: rat hippocampal neurons, average of 1 to 4 replications. The procedure: Hippocampi were dissected from embryonic day 18-19 rats. The tissue was collected in Hibernate™ media (Gibco BRL) and minced into 1 mm pieces. The tissue was dissociated using the Papain Dissociation System (Worthington Biochemical Corporation). Following isolation the cells were suspended in serum-free media composed of Neurobasal™ (Gibco BRL), 2% B27 supplement (Gibco BRL), L-glutamine and antibiotics. Cells were plated in 12 well plates tissue culture dishes coated with poly-L-lysine at a concentration of 7.5×10^4 cells per well. Following 10-14 days at 37° C. in 5% CO2, the GSK3 inhibitor compounds set forth below were added. Four to eight hours following compound addition, the conditioned media was removed from the cells and the cultures were stored at 37° C. […] The cultures were then either exposed for 5-minutes at room temperature to 200 μM glutamic acid in the same HBSS, or not exposed to glutamic acid as a control. Following exposure, the cultures were rinsed three times with the buffer and then returned to their original conditioned media containing the GSK3 inhibitor compounds. Twenty to 24 hours following glutamic acid exposure, the cultures were rinsed in HBSS and exposed for 10 minutes to Trypan Blue. This dye is taken up by dead cells. The cultures were rinsed then fixed for 30 minutes in 4% paraformaldehyde. The number of live and dead (blue) large neurons are counted (at least 200 cells from each well) by phase contrast microscopy and photographed, and the percentage of surviving cells was determined. […] The results are shown in the following Table 2 as the average of 1 to 4 replications: […]

With “6-[(2-{[6-(2,4-dichlorophenyl)-5-imidazolyl-2-pyridyl]amino}ethyl)amino]pyridine-3-carbonitrile [CT 99025]”, in data set [1], the “ischemic area (percent injury of the ipsilateral hemisphere) versus vehicle control” value is reported as “substantially reduced”.

With `N#Cc1ccc(NCCNc2ncc(-c3ccncc3)c(-c3ccc(Cl)cc3Cl)n2)nc1` [I], the CL in data set [2] is 114 [ml/min]/kg. Moreover, in data set [2] (brains isolated at 150 minutes post administration), the “Brain (at end of study) drug level” value is “<LOQ”. In data set [2] (rat, plasma, iv), the AUC – broadly, the area under the concentration-time curve, a measure of exposure – is 145 ng·h/mL; the Cmax (as a rule, the maximum level reached in the sampled fluid or tissue) is 1200 ng/mL; the Tmax (usually the time from dosing to the highest level) is ~0 h; the half-life (commonly the time in which the quantity being followed falls by half) amounted to 42 min. Besides, in data set [2] (rat, plasma, iv, read-out: Vss), the Vd is 6.8 L/kg. In addition, the concentration at 0 min in data set [2] (rat, plasma, iv, time 0 min) was < 20 ng/mL. In data set [2] (rat, plasma, iv, time 7 min), this molecule showed a concentration at 7 min of 1190 ng/mL. For the same molecule, the concentration at 20 min in data set [2] (rat, plasma, iv, time 20 min) was found to be 1160 ng/mL. In data set [2] (rat, plasma, iv, time 40 min), this molecule came in with a concentration at 40 min of 614 ng/mL. In data set [2] (rat, plasma, iv, time 70 min), the concentration at 70 min was 440 ng/mL. Further, in data set [2] (rat, plasma, iv, time 100 min), the concentration at 100 min was determined as 358 ng/mL. The molecule also came in with a concentration at 150 min in data set [2] (rat, plasma, iv, time 150 min) of 106 ng/mL. Besides, the EC50 (commonly the concentration needed to bring the measured effect to its halfway point) in data set [3] turned out to be 184 nM. Moreover, the “Cells Surviving (%) With Glutamate” value in data set [4] (200 μM glutamic acid for 5 minutes, counted 20 to 24 hours later) is recorded as 56%. Besides, in data set [4] (not exposed to glutamic acid), the “Cells Surviving (%) Without Glutamate (control)” value is 94%.
